Source: patent publication US9155714B2, “Compositions comprising an aromatic alcohol and a TRPV-1 antagonist, and uses thereof” (JOHNSON & JOHNSON CONSUMER INC., priority 2013, dated 2015)
Values joined by “and” are separate entries in the source; they are usually repeats but may differ in a detail not shown here. Identical values can stand only once.

Experiments:
Format in all cases: cell-based
[1] = target: T1, human vanilloid receptor-1 (TRPV-1) (Homo sapiens, UniProt Q8NER1); test: Calcium Flux Test, inhibition of phenoxyethanol-induced calcium flux
T1 construct: host or cells: HEK293
T1 sequence (Q8NER1 whole entry): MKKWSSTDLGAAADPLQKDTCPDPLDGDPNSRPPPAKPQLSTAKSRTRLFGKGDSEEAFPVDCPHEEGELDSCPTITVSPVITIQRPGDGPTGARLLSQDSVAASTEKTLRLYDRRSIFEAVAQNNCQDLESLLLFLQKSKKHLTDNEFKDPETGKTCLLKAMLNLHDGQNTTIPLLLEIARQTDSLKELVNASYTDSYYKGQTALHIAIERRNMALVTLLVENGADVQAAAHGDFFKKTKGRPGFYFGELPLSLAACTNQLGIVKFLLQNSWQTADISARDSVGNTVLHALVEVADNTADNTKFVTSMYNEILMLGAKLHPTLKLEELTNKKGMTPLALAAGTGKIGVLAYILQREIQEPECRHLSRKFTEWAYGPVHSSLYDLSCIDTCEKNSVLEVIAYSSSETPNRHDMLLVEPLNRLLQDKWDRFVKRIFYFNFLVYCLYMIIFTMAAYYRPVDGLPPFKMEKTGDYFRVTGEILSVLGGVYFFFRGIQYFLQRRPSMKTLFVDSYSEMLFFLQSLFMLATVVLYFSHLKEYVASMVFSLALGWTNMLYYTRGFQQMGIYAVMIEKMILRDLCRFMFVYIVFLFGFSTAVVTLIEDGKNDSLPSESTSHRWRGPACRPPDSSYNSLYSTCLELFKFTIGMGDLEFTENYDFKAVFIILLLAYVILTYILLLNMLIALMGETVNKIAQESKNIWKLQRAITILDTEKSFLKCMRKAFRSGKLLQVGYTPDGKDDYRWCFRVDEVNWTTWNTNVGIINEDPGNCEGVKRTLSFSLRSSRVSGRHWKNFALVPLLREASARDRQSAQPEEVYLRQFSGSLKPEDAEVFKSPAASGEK
Experimental: (§1) The Calcium Flux Test is performed in the following manner: Recombinant HEK293 cells expressing human vanilloid receptor-1 (TRPV-1; accession number AF196175, EMD Millipore, Billerica, Mass.) are grown in D-MEM/F-12 media (Life Technologies, Grand Island, N.Y.) supplemented with 10% fetal bovine serum, 1% non essential amino acids and 400 μg/mL Geneticin (Gibco, Life Technologies). Cells are plated at a concentration of 15,000 cells per well on poly-D-lysine-coated 384 well plates and incubated overnight at 5% CO2 and 37° C. After incubation, culture media is removed from the wells and replaced with 50 μL per well of Fluo-8 No Wash dye solution (#36315, AAT Bioquest, Sunnyvale, Calif.). The Fluo-8 dye solution is prepared by mixing 20 uL of Fluo-8 NW with 30 mL of 0.33× Pluronic® F127 Plus (BASF of Ludwigshafen, Germany) in assay buffer (1×HBSS+2% of HEPES). Fluo-8 dye is incubated for 30 minutes at room temperature. Intracellular calcium (Ca^2+) flux is monitored upon exposure to aromatic alcohol in DMSO vehicle by measuring fluorescence intensity at Ex/Em 490/525 on a Functional Drug Screening System (FDSS; Hamamatsu, […]). Measurements are taken every second for a period of 4 minutes. […] Statistical differences are obtained using One Way ANOVA with Tukey Post-hoc test; statistical significance is defined as P≦0.05.
(§2) The Maximum RFU obtained with a given concentration of aromatic alcohol is compared with the Maximum RFU obtained using the same concentration of aromatic alcohol but pretreated with the TRPV-1 antagonist for 5 minutes after dye incubation. Percent inhibition achieved with the TRPV-1 antagonist is calculated as: 100*((Maximum RFU of aromatic alcohol−Maximum RFU of aromatic alcohol pretreated with TRPV-1 antagonist)/Maximum RFU of aromatic alcohol).
(§3) Capsazepine and AMG9810 were tested for activity as TRPV-1 antagonists using the Calcium Flux Test using two different concentrations of phenoxyethanol in DMSO. They were also tested using the Calcium Flux Test in which phenoxyethanol was replaced with capsaicin. […]

[2] = target: T1, human vanilloid receptor-1 (TRPV-1); test: Calcium Flux Test, phenoxyethanol replaced with capsaicin (capsaicin-induced calcium flux)
Experimental: as §1, §2, §3

[3] = target: T1, human vanilloid receptor-1 (TRPV-1); test: Calcium Flux Test, inhibition of benzyl alcohol-induced calcium flux; conditions: 10 uM capsazepine
Experimental: as §1, §2
Capsazepine was tested for activity as a TRPV-1 antagonist with different concentrations of benzyl alcohol in DMSO as described in Example 2. […]

[4] = target: T1, human vanilloid receptor-1 (TRPV-1); test: Calcium Flux Test, inhibition of phenethyl alcohol-induced calcium flux; conditions: 10 uM capsazepine; for inhibition at 10 µM: read-out: (column without head; percent inhibition)
Experimental: as §1, §2
Capsazepine was tested for activity as a TRPV-1 antagonist with different concentrations of phenethyl alcohol in DMSO as described in Example 2. […]

[5] = capsazepine 0.6104 nM, phenoxyethanol 2 mM
[6] = capsazepine 0.6104 nM, phenoxyethanol 3 mM
[7] = capsazepine 2 nM, phenoxyethanol 2 mM
[8] = capsazepine 10 nM, phenoxyethanol 2 mM
[9] = capsazepine 10 nM, phenoxyethanol 3 mM
[10] = capsazepine 39 nM, phenoxyethanol 2 mM
[11] = capsazepine 39 nM, phenoxyethanol 3 mM
[12] = capsazepine 156 nM, phenoxyethanol 2 mM
[13] = capsazepine 156 nM, phenoxyethanol 3 mM
[14] = capsazepine 625 nM, phenoxyethanol 2 mM
[15] = capsazepine 625 nM, phenoxyethanol 3 mM
[16] = capsazepine 2500 nM, phenoxyethanol 2 mM
[17] = capsazepine 2500 nM, phenoxyethanol 3 mM
[18] = capsazepine 10000 nM, phenoxyethanol 2 mM
[19] = capsazepine 10000 nM, phenoxyethanol 3 mM
[20] = capsazepine 2 nM, capsaicin 300 nM
[21] = capsazepine 10 nM, capsaicin 100 nM
[22] = capsazepine 10 nM, capsaicin 300 nM
[23] = capsazepine 39 nM, capsaicin 100 nM
[24] = capsazepine 39 nM, capsaicin 300 nM
[25] = capsazepine 156 nM, capsaicin 100 nM
[26] = capsazepine 156 nM, capsaicin 300 nM
[27] = capsazepine 625 nM, capsaicin 100 nM
[28] = capsazepine 625 nM, capsaicin 300 nM
[29] = capsazepine 2500 nM, capsaicin 100 nM
[30] = capsazepine 2500 nM, capsaicin 300 nM
[31] = capsazepine 10000 nM, capsaicin 100 nM
[32] = capsazepine 10000 nM, capsaicin 300 nM

Oc1cc2c(cc1O)CN(C(=S)NCCc1ccc(Cl)cc1)CCC2 [Capsazepine, capsazepine]
Maximum RFU (mean ± SD) ([1]; capsazepine 0.1526 nM, phenoxyethanol 2 mM): 319.33 ± 77.43 RFU | Maximum RFU (mean ± SD) ([1]; capsazepine 0.1526 nM, phenoxyethanol 3 mM): 508.45 ± 81.79 RFU | Maximum RFU (mean ± SD) [1, 5]: 210.03 ± 46.34 RFU | inhibition at 0.0006104 µM [1, 5]: 26.8% | Maximum RFU (mean ± SD) [1, 6]: 351.36 ± 32.21 RFU | inhibition at 0.0006104 µM [1, 6]: 20.5% | Maximum RFU (mean ± SD) [1, 7]: 236.10 ± 8.91 RFU | inhibition at 0.002 µM [1, 7]: 17.7% | Maximum RFU (mean ± SD) ([1]; capsazepine 2 nM, phenoxyethanol 3 mM): 486.75 ± 153.02 RFU | Maximum RFU (mean ± SD) [1, 8]: 154.95 ± 19.56 RFU | inhibition at 0.01 µM [1, 8]: 46% | Maximum RFU (mean ± SD) [1, 9]: 340.96 ± 12.96 RFU | inhibition at 0.01 µM [1, 9]: 22.8% | Maximum RFU (mean ± SD) [1, 10]: 75.06 ± 6.64 RFU | inhibition at 0.039 µM [1, 10]: 73.8% | Maximum RFU (mean ± SD) [1, 11]: 176.52 ± 75.37 RFU | inhibition at 0.039 µM [1, 11]: 60% | Maximum RFU (mean ± SD) [1, 12]: 87.54 ± 8.38 RFU | inhibition at 0.156 µM [1, 12]: 69.5% | Maximum RFU (mean ± SD) [1, 13]: 101.59 ± 2.44 RFU | inhibition at 0.156 µM [1, 13]: 77% | Maximum RFU (mean ± SD) [1, 14]: 57.76 ± 2.15 RFU | inhibition at 0.625 µM [1, 14]: 79.9% | Maximum RFU (mean ± SD) [1, 15]: 75.71 ± 3.39 RFU | inhibition at 0.625 µM [1, 15]: 82.9% | Maximum RFU (mean ± SD) [1, 16]: 84.79 ± 2.68 RFU | inhibition at 2.5 µM [1, 16]: 70.5% | Maximum RFU (mean ± SD) [1, 17]: 99.71 ± 6.08 RFU | inhibition at 2.5 µM [1, 17]: 77.4% | Maximum RFU (mean ± SD) [1, 18]: 79.39 ± 2.79 RFU | inhibition at 10 µM [1, 18]: 72.3% | Maximum RFU (mean ± SD) [1, 19]: 106.49 ± 4.15 RFU | inhibition at 10 µM [1, 19]: 75.9% | Maximum RFU (mean ± SD) ([2]; capsazepine 2 nM, capsaicin 100 nM): 665.83 ± 90.25 RFU | Maximum RFU (mean ± SD) [2, 20]: 850.93 ± 28.65 RFU | inhibition at 0.002 µM [2, 20]: 1.16% | Maximum RFU (mean ± SD) [2, 21]: 461.29 ± 221.27 RFU | inhibition at 0.01 µM [2, 21]: 28.7% | Maximum RFU (mean ± SD) [2, 22]: 771.64 ± 25.92 RFU | inhibition at 0.01 µM [2, 22]: 10.4% | Maximum RFU (mean ± SD) [2, 23]: 187.95 ± 177.88 RFU | inhibition at 0.039 µM [2, 23]: 71% | Maximum RFU (mean ± SD) [2, 24]: 557.38 ± 79.48 RFU | inhibition at 0.039 µM [2, 24]: 35.3% | Maximum RFU (mean ± SD) [2, 25]: 29.36 ± 6.46 RFU | inhibition at 0.156 µM [2, 25]: 95.5% | Maximum RFU (mean ± SD) [2, 26]: 51.20 ± 14.34 RFU | inhibition at 0.156 µM [2, 26]: 94% | Maximum RFU (mean ± SD) [2, 27]: 24.39 ± 5.19 RFU | inhibition at 0.625 µM [2, 27]: 96.2% | Maximum RFU (mean ± SD) [2, 28]: 28.36 ± 3.16 RFU | inhibition at 0.625 µM [2, 28]: 96.7% | Maximum RFU (mean ± SD) [2, 29]: 27.61 ± 4.95 RFU | inhibition at 2.5 µM [2, 29]: 95.7% | Maximum RFU (mean ± SD) [2, 30]: 31.08 ± 3.44 RFU | inhibition at 2.5 µM [2, 30]: 96.4% | Maximum RFU (mean ± SD) [2, 31]: 45.31 ± 14.17 RFU | inhibition at 10 µM [2, 31]: 93% | Maximum RFU (mean ± SD) [2, 32]: 58.73 ± 4.40 RFU | inhibition at 10 µM [2, 32]: 93.2% | Maximum RFU ([3]; benzyl alcohol 0 % w/v): 13.30 RFU and 18.24 ± 1.3 RFU | Maximum RFU ([3]; benzyl alcohol 0.00000199 % w/v): 11.32 RFU and 18.74 ± 2.18 RFU | Maximum RFU ([3]; benzyl alcohol 0.00000598 % w/v): 9.46 RFU and 16.77 ± 1.48 RFU | Maximum RFU ([3]; benzyl alcohol 0.0000538 % w/v): 10.90 RFU and 18.44 ± 0.07 RFU | Maximum RFU ([3]; benzyl alcohol 0.001452 % w/v): 11.63 RFU and 15.7 ± 2.1 RFU | % Inhibition ([3]; benzyl alcohol 0.004357 % w/v): 72.51% | Maximum RFU ([3]; benzyl alcohol 0.004357 % w/v): 8.14 RFU and 15.33 ± 1 RFU | inhibition at 10 µM ([3]; benzyl alcohol 0.004357 % w/v): 74.2% | % Inhibition ([3]; benzyl alcohol 0.013072 % w/v): 82.58% | inhibition at 10 µM ([3]; benzyl alcohol 0.013072 % w/v): 88.8% | % Inhibition ([3]; benzyl alcohol 0.04 % w/v): 93.23% | Maximum RFU ([3]; benzyl alcohol 0.04 % w/v): 18.82 RFU and 28.72 ± 1.5 RFU | inhibition at 10 µM ([3]; benzyl alcohol 0.04 % w/v): 95.4% | Maximum RFU ([3]; benzyl alcohol 6.64E−07 % w/v): 11.79 RFU and 18.24 ± 2.53 RFU | Maximum RFU ([4]; phenethyl alcohol 0 % w/v): 13.44 RFU and 17.46 ± 0.4 RFU | Maximum RFU ([4]; phenethyl alcohol 0.000002 % w/v): 12.76 RFU and 18.03 ± 3.35 RFU | Maximum RFU ([4]; phenethyl alcohol 0.000006 % w/v): 13.70 RFU and 18 ± 0.75 RFU | Maximum RFU ([4]; phenethyl alcohol 0.000018 % w/v): 13.60 RFU and 18.18 ± 0.59 RFU | Maximum RFU ([4]; phenethyl alcohol 0.00016 % w/v): 11.64 RFU and 19.48 ± 0.51 RFU | Maximum RFU ([4]; phenethyl alcohol 0.00048 % w/v): 11.71 RFU and 20.58 ± 0.6 RFU | Maximum RFU ([4]; phenethyl alcohol 0.0015 % w/v): 11.68 RFU and 18.5 ± 0.5 RFU | inhibition at 10 µM ([4]; phenethyl alcohol 0.0015 % w/v): 54.3% | (column without head; percent inhibition) ([4]; phenethyl alcohol 0.0044 % w/v): 56.15% and 80.22% | Maximum RFU ([4]; phenethyl alcohol 0.0044 % w/v): 11.56 RFU and 15.66 ± 0.4 RFU | (column without head; percent inhibition) ([4]; phenethyl alcohol 0.013 % w/v): 93.84% | inhibition at 10 µM ([4]; phenethyl alcohol 0.013 % w/v): 96.3% | (column without head; percent inhibition) ([4]; phenethyl alcohol 0.04 % w/v): 91.52% | Maximum RFU ([4]; phenethyl alcohol 0.04 % w/v): 26.42 RFU and 39.89 ± 5.81 RFU | inhibition at 10 µM ([4]; phenethyl alcohol 0.04 % w/v): 94% | (column without head; percent inhibition) ([4]; phenethyl alcohol 0.12 % w/v): 37.18% | Maximum RFU ([4]; phenethyl alcohol 0.12 % w/v): 345.95 RFU and 364.66 ± 13.76 RFU | inhibition at 10 µM ([4]; phenethyl alcohol 0.12 % w/v): 42.9%
